The compounds below were run on hypoxia-inducible endogenous VEGF expression (assay: Assay to evaluate effect on hypoxia-inducible endogenous VEGF expression (VEGF ELISA, HeLa cells)). Details: HeLa cells cultured 24-48 hours under hypoxic conditions (1% O2, 5% CO2); VEGF in conditioned media by ELISA; read-out: ELISA EC50 (effective concentration required to lower the amount of VEGF translation by 50%).
Type: cell-based
Description: Assay to Evaluate Effect on Hypoxia-Inducible Endogenous VEGF Expression
The ability of the compounds of the invention to modulate hypoxia-inducible endogenous VEGF expression is analyzed as follows. VEGF protein levels are monitored by an ELISA assay (R&D Systems). Briefly, HeLa cells are cultured for 24-48 hours under hypoxic conditions (1% O2, 5% CO2, balanced with nitrogen) in the presence or absence of a compound of the invention. The conditioned media is then assayed by ELISA, and the concentration of VEGF is calculated from the standard ELISA curve of each assay.
A dose-response analysis is performed using the ELISA assay and conditions described above. A series of, e.g., seven different concentrations are analyzed. In parallel, a dose-response cytotoxicity assay is performed using Cell Titer Glo (Promega) under the same conditions as the ELISA to ensure that the inhibition of VEGF expression is not due to the cytotoxicity. Dose-response curves are plotted using percentage inhibition versus concentration of the compound, and EC50 and CC50 values are generated for each compound with the maximal inhibition set as 100% and the minimal inhibition as 0%.
The most preferred compounds of the invention are those with μM values of 3 or less.
With `Cc1ccc2cc(OC(=O)N3CCC(C)CC3)ccc2n1` [4-Methyl-piperidine-1-carboxylic acid 2-methyl-quinolin-6-yl ester] the EC50 was greater than 30 µM.

Same assay, conditions: Homo sapiens, HeLa, read-out: ELISA EC50 (effective concentration required to lower the amount of VEGF translation by 50%)
In the case of `CC(=O)c1c(OC(=O)N2CCCN(C)CC2)ccc2ccccc12` [4-Methyl-[1,4]diazepane-1-carboxylic acid 1-acetyl-naphthalen-2-yl ester], the EC50 is reported as greater than 30 µM.
In the case of `Cc1ccc(OC(=O)N2CCCN(C)CC2)c(Br)c1` [4-Methyl-[1,4]diazepane-1-carboxylic acid 2-bromo-4-methyl-phenyl ester], the EC50 is reported as greater than 30 µM.
In the case of `CN1CCCN(C(=O)Oc2ccccc2Br)CC1` [4-Methyl-[1,4]diazepane-1-carboxylic acid 2-bromo-phenyl ester], the EC50 is reported as greater than 30 µM.
`CN1CCN(C(=O)Oc2cc(Cl)c(Cl)cc2Cl)CC1` [4-Methyl-piperazine-1-carboxylic acid 2,4,5-trichloro-phenyl ester] gave an EC50 greater than 30 µM.
In the case of `CN1CCN(C(=O)Oc2c(Cl)cc(Cl)cc2Cl)CC1` [4-Methyl-piperazine-1-carboxylic acid 2,4,6-trichloro-phenyl ester], the EC50 is reported as 14.2 µM.
Work on `Cc1ccc2cc(OC(=O)N3CCN(C)CC3)ccc2n1` [4-Methyl-piperazine-1-carboxylic acid 2-methyl-quinolin-6-yl ester] yielded an EC50 greater than 30 µM.
In the case of `CN1CCN(C(=O)Oc2ncc3ccccc3c2Cl)CC1` [4-Methyl-piperazine-1-carboxylic acid 4-chloro-isoquinolin-3-yl ester], the EC50 is reported as greater than 10 µM.
Work on `CN1CCN(C(=O)Oc2cc3ccccc3cn2)CC1` [4-Methyl-piperazine-1-carboxylic acid isoquinolin-3-yl ester] yielded an EC50 greater than 30 µM.
In the case of `CC1CCN(C(=O)Oc2ccccc2Br)CC1` [4-Methyl-piperidine-1-carboxylic acid 2-bromo-phenyl ester], the EC50 is reported as greater than 30 µM.
With `NC(=O)C1(N2CCCCC2)CCN(C(=O)Oc2ccc3ccccc3c2Br)CC1` [4′-Carbamoyl-[1,4′]bipiperidinyl-1′-carboxylic acid 1-bromo-naphthalen-2-yl ester] the EC50 was 6.54 µM.
For `CN(C)C(=O)Oc1ccc2ccccc2c1Br` [Dimethyl-carbamic acid 1-bromo-naphthalen-2-yl ester], the EC50 was 4 µM.

Same assay, conditions: Homo sapiens; HeLa cells cultured 24-48 hours under hypoxic conditions (1% O2, 5% CO2); VEGF in conditioned media by ELISA; read-out: ELISA EC50 (effective concentration required to lower the amount of VEGF translation by 50%)
`CS(=O)(=O)Nc1c(OC(=O)N2CCC(C(O)(c3ccccc3)c3ccccc3)CC2)ccc2ccccc12` [4-(Hydroxy-diphenyl-methyl)-piperidine-1-carboxylic acid 1-methanesulfonylamino-naphthalen-2-yl ester] gave an EC50 greater than 5 µM.
Work on `O=C(Nc1ccc2ccccc2c1Br)N1CCC(C(O)(c2ccccc2)c2ccccc2)CC1` [4-(Hydroxy-diphenyl-methyl)-piperidine-1-carboxylic acid (1-bromo-naphthalen-2-yl)-amide] yielded an EC50 of 0.22 µM.
In the case of `O=C(Nc1ccc2ccccc2c1Cl)N1CCC(C(O)(c2ccccc2)c2ccccc2)CC1` [4-(Hydroxy-diphenyl-methyl)-piperidine-1-carboxylic acid (1-chloro-naphthalen-2-yl)-amide], the EC50 is reported as 0.794 µM.
`CC(=O)c1c(OC(=O)N2CCC(Cc3ccccc3)CC2)ccc2ccccc12` [4-Benzyl-piperidine-1-carboxylic acid 1-acetyl-naphthalen-2-yl ester] showed an EC50 of 2.6 µM.
`O=C(Oc1ccc2ccccc2c1Br)N1CCC(Cc2ccccc2)CC1` [4-Benzyl-piperidine-1-carboxylic acid 1-bromo-naphthalen-2-yl ester] showed an EC50 of 0.259 µM.
`CS(=O)(=O)Nc1c(OC(=O)N2CCC(Cc3ccccc3)CC2)ccc2ccccc12` [4-Benzyl-piperidine-1-carboxylic acid 1-methanesulfonylamino-naphthalen-2-yl ester] was tested, and the EC50 was greater than 5 µM.
For `O=C(Oc1cc(Cl)c(Cl)cc1Cl)N1CCC(Cc2ccccc2)CC1` [4-Benzyl-piperidine-1-carboxylic acid 2,4,5-trichloro-phenyl ester], the EC50 was 7.09 µM.
`O=C(Oc1c(Cl)cc(Cl)cc1Cl)N1CCC(Cc2ccccc2)CC1` [4-Benzyl-piperidine-1-carboxylic acid 2,4,6-trichloro-phenyl ester] showed an EC50 of 3.72 µM.
Work on `Cc1ccc(OC(=O)N2CCC(Cc3ccccc3)CC2)c(Br)c1` [4-Benzyl-piperidine-1-carboxylic acid 2-bromo-4-methyl-phenyl ester] yielded an EC50 greater than 30 µM.
With `O=C(Oc1ccccc1Br)N1CCC(Cc2ccccc2)CC1` [4-Benzyl-piperidine-1-carboxylic acid 2-bromo-phenyl ester] the EC50 was greater than 30 µM.
`Cc1ccc2cc(OC(=O)N3CCC(Cc4ccccc4)CC3)ccc2n1` [4-Benzyl-piperidine-1-carboxylic acid 2-methyl-quinolin-6-yl ester] showed an EC50 greater than 30 µM.
Compound `O=C(Nc1ccc2ccccc2c1Br)N1CCC(Cc2ccccc2)CC1` [4-Benzyl-piperidine-1-carboxylic acid (1-bromo-naphthalen-2-yl)-amide] has an EC50 greater than 10 µM.
With `O=C(Nc1ccc2ccccc2c1Cl)N1CCC(Cc2ccccc2)CC1` [4-Benzyl-piperidine-1-carboxylic acid (1-chloro-naphthalen-2-yl)-amide] the EC50 was greater than 10 µM.
`O=C(Oc1cc2ccccc2cn1)N1CCC(Cc2ccccc2)CC1` [4-Benzyl-piperidine-1-carboxylic acid isoquinolin-3-yl ester] was tested, and the EC50 was greater than 30 µM.
`O=C(Nc1ccc2ccccc2c1)N1CCC(Cc2ccccc2)CC1` [4-Benzyl-piperidine-1-carboxylic acid naphthalen-2-ylamide] was tested, and the EC50 was 4.39 µM.
`CC(=O)c1c(OC(=O)N2CCC(C)CC2)ccc2ccccc12` [4-Methyl-piperidine-1-carboxylic acid 1-acetyl-naphthalen-2-yl ester] gave an EC50 of 1.85 µM.
With `CC1CCN(C(=O)Oc2ccc3ccccc3c2Br)CC1` [4-Methyl-piperidine-1-carboxylic acid 1-bromo-naphthalen-2-yl ester] the EC50 was 0.469 µM.
`CC1CCN(C(=O)Oc2cc(Cl)c(Cl)cc2Cl)CC1` [4-Methyl-piperidine-1-carboxylic acid 2,4,5-trichloro-phenyl ester] gave an EC50 of 16.2 µM.
Compound `CC1CCN(C(=O)Oc2c(Cl)cc(Cl)cc2Cl)CC1` [4-Methyl-piperidine-1-carboxylic acid 2,4,6-trichloro-phenyl ester] has an EC50 greater than 30 µM.
Compound `Cc1ccc(OC(=O)N2CCC(C)CC2)c(Br)c1` [4-Methyl-piperidine-1-carboxylic acid 2-bromo-4-methyl-phenyl ester] has an EC50 greater than 30 µM.
In the case of `CC1CCN(C(=O)Oc2cc3ccccc3cn2)CC1` [4-Methyl-piperidine-1-carboxylic acid isoquinolin-3-yl ester], the EC50 is reported as greater than 30 µM.
In the case of `COc1ccc2ccc(OC(=O)N3CCN(c4ccccc4)CC3)c(Br)c2c1` [4-Phenyl-piperazine-1-carboxylic acid 1-bromo-7-methoxy-naphthalen-2-yl ester], the EC50 is reported as greater than 10 µM.
For `CS(=O)(=O)Nc1c(OC(=O)N2CCN(c3ccccc3)CC2)ccc2ccccc12` [4-Phenyl-piperazine-1-carboxylic acid 1-methanesulfonylamino-naphthalen-2-yl ester], the EC50 was greater than 5 µM.
`O=C(Oc1cc(Cl)c(Cl)cc1Cl)N1CCN(c2ccccc2)CC1` [4-Phenyl-piperazine-1-carboxylic acid 2,4,5-trichloro-phenyl ester] gave an EC50 greater than 30 µM.
For `O=C(Oc1c(Cl)cc(Cl)cc1Cl)N1CCN(c2ccccc2)CC1` [4-Phenyl-piperazine-1-carboxylic acid 2,4,6-trichloro-phenyl ester], the EC50 was 5.78 µM.
Compound `Cc1ccc2cc(OC(=O)N3CCN(c4ccccc4)CC3)ccc2n1` [4-Phenyl-piperazine-1-carboxylic acid 2-methyl-quionolin-6-yl ester] has an EC50 greater than 30 µM.
For `O=C(Nc1ccc2ccccc2c1Br)N1CCN(c2ccccc2)CC1` [4-Phenyl-piperazine-1-carboxylic acid (1-bromo-naphthalen-2-yl)-amide], the EC50 was greater than 10 µM.
For `O=C(Nc1ccc2ccccc2c1Cl)N1CCN(c2ccccc2)CC1` [4-Phenyl-piperazine-1-carboxylic acid (1-chloro-naphthalen-2-yl)-amide], the EC50 was greater than 10 µM.
`O=C(Oc1cc2ccccc2cn1)N1CCN(c2ccccc2)CC1` [4-Phenyl-piperazine-1-carboxylic acid isoquinolin-3-yl ester] was tested, and the EC50 was greater than 30 µM.
For `CCC(NC(=O)Oc1ccc2ccccc2c1)(C(F)(F)F)C(F)(F)F` [(1,1-Bis-trifluoromethyl-propyl)-carbamic acid naphthalen-2-yl ester], the EC50 was greater than 30 µM.
`CCc1cccc(NC(=O)Oc2ccc3ccccc3c2)c1` [(3-Ethyl-phenyl)-carbamic acid naphthalen-2-yl ester] showed an EC50 greater than 30 µM.
With `CS(=O)(=O)Nc1c(OC(=O)Oc2ccc3ccccc3c2NS(C)(=O)=O)ccc2ccccc12` [Carbonic acid bis-(1-methanesulfonylamino-naphthalen-2-yl) ester] the EC50 was 4.3 µM.
`O=C(NC1CCCCC1)Oc1ccccc1Br` [Cyclohexyl-carbamic acid 2-bromo-phenyl ester] showed an EC50 greater than 30 µM.
Work on `O=C(NCC1CCCCC1)Oc1ccc2cc(Br)ccc2c1Br` [Cyclohexylmethyl-carbamic acid 1,6-dibromo-naphthalen-2-yl ester] yielded an EC50 greater than 30 µM.
With `O=C(NCC1CCCCC1)Oc1ccc2ccccc2c1Br` [Cyclohexylmethyl-carbamic acid 1-bromo-naphthalen-2-yl ester] the EC50 was greater than 30 µM.
`CCN(CC)C(=O)Oc1ccc2ccccc2c1Br` [Diethyl-carbamic acid 1-bromo-naphthalen-2-yl ester] gave an EC50 of 2 µM.

Source: patent US8143257B2, “Substituted phenols as active agents inhibiting VEGF production” (PTC Therapeutics, Inc., priority 2004, dated 2012)
